In the CheMixHub viscosity set:
± gives the uncertainty stated by the source.

Test: xn = mol fraction of the nth substance listed

CC(=O)CC(C)C + Cc1ccc(C)cc1
298.15 K, 101 kPa
Conditions | viscosity [mPa·s]
x1 = 0.1409 | 0.59 ± 0.006
x1 = 0.226 | 0.583 ± 0.006
x1 = 0.3369 | 0.576 ± 0.006
x1 = 0.4463 | 0.569 ± 0.006
x1 = 0.5673 | 0.563 ± 0.006
x1 = 0.6366 | 0.559 ± 0.006
x1 = 0.8014 | 0.551 ± 0.006
x1 = 0.9061 | 0.546 ± 0.006

CCCCCCO + CCCCCCCC
viscosity [mPa·s]
Conditions | 293.15 K | 298.15 K | 303.15 K | 308.15 K | 313.15 K
100 kPa, x2 = 0.0423 | 4.68 ± 0.055 | 4.014 ± 0.047 | 3.464 ± 0.041 | 3.004 ± 0.036 | 2.618 ± 0.031
100 kPa, x2 = 0.0824 | 4.117 ± 0.049 | 3.546 ± 0.042 | 3.072 ± 0.037 | 2.675 ± 0.032 | 2.34 ± 0.028
100 kPa, x2 = 0.1636 | 3.198 ± 0.038 | 2.775 ± 0.033 | 2.423 ± 0.029 | 2.126 ± 0.026 | 1.876 ± 0.023
100 kPa, x2 = 0.2691 | 2.319 ± 0.028 | 2.037 ± 0.025 | 1.8 ± 0.022 | 1.599 ± 0.02 | 1.426 ± 0.018
100 kPa, x2 = 0.3407 | 1.877 ± 0.023 | 1.663 ± 0.02 | 1.482 ± 0.018 | 1.327 ± 0.017 | 1.193 ± 0.015
100 kPa, x2 = 0.3897 | 1.634 ± 0.02 | 1.457 ± 0.018 | 1.306 ± 0.016 | 1.176 ± 0.015 | 1.064 ± 0.014
100 kPa, x2 = 0.4731 | 1.303 ± 0.016 | 1.176 ± 0.015 | 1.065 ± 0.014 | 0.969 ± 0.013 | 0.884 ± 0.012
100 kPa, x2 = 0.5241 | 1.148 ± 0.015 | 1.043 ± 0.013 | 0.95 ± 0.012 | 0.869 ± 0.011 | 0.797 ± 0.011
100 kPa, x2 = 0.5779 | 1.011 ± 0.013 | 0.925 ± 0.012 | 0.848 ± 0.011 | 0.779 ± 0.01 | 0.718 ± 0.01
100 kPa, x2 = 0.6611 | 0.851 ± 0.011 | 0.785 ± 0.011 | 0.725 ± 0.01 | 0.671 ± 0.009 | 0.622 ± 0.009
100 kPa, x2 = 0.753 | 0.719 ± 0.01 | 0.667 ± 0.009 | 0.62 ± 0.009 | 0.577 ± 0.008 | 0.537 ± 0.008
100 kPa, x2 = 0.8903 | 0.582 ± 0.008 | 0.543 ± 0.008 | 0.508 ± 0.008 | 0.475 ± 0.007 | 0.445 ± 0.007
100 kPa, x2 = 0.9572 | 0.533 ± 0.008 | 0.502 ± 0.008 | 0.468 ± 0.007 | 0.438 ± 0.007 | 0.411 ± 0.007
100 kPa, x2 = 0.9715 | 0.524 ± 0.008 | 0.491 ± 0.007 | 0.461 ± 0.007 | 0.432 ± 0.007 | 0.406 ± 0.007
101.33 kPa, x2 = 0.051 | – | 4.054 ± 0.025 | – | – | –
101.33 kPa, x2 = 0.1118 | – | 3.29 ± 0.02 | – | – | –
101.33 kPa, x2 = 0.1835 | – | 2.593 ± 0.016 | – | – | –
101.33 kPa, x2 = 0.3569 | – | 1.552 ± 0.01 | – | – | –
101.33 kPa, x2 = 0.5094 | – | 1.074 ± 0.007 | – | – | –
101.33 kPa, x2 = 0.5642 | – | 0.955 ± 0.006 | – | – | –
101.33 kPa, x2 = 0.6167 | – | 0.857 ± 0.006 | – | – | –
101.33 kPa, x2 = 0.6701 | – | 0.77 ± 0.005 | – | – | –
101.33 kPa, x2 = 0.7288 | – | 0.686 ± 0.005 | – | – | –
101.33 kPa, x2 = 0.8387 | – | 0.566 ± 0.004 | – | – | –
101.33 kPa, x2 = 0.937 | – | 0.511 ± 0.004 | – | – | –

CCCCCCO + Cc1ccccc1
viscosity [mPa·s], 101 kPa
Conditions | x2 = 0.1151 | x2 = 0.2265 | x2 = 0.3342 | x2 = 0.4384 | x2 = 0.5394 | x2 = 0.6372 | x2 = 0.7321 | x2 = 0.8241 | x2 = 0.9133
303.15 K | 2.859 ± 0.023 | 2.167 ± 0.018 | 1.692 ± 0.014 | 1.351 ± 0.011 | 1.099 ± 0.009 | 0.882 ± 0.0076 | 0.7364 ± 0.0065 | 0.6235 ± 0.0056 | 0.5592 ± 0.0051
313.15 K | 2.206 ± 0.018 | 1.701 ± 0.014 | 1.341 ± 0.011 | 1.097 ± 0.009 | 0.9164 ± 0.008 | 0.7593 ± 0.0067 | 0.6439 ± 0.0058 | 0.5569 ± 0.0051 | 0.5069 ± 0.0048
323.15 K | 1.661 ± 0.014 | 1.321 ± 0.011 | 1.057 ± 0.009 | 0.8845 ± 0.0078 | 0.7532 ± 0.0067 | 0.6516 ± 0.0059 | 0.5418 ± 0.0051 | 0.4674 ± 0.0045 | 0.4336 ± 0.0042
